We go through 35 compounds from the PolyMetriX glass transition set.

± gives the standard deviation of the reports.

Assay in data set [1]: not given
The source holds these as a separate data set.

Assay in data set [2]: not given
The source holds these as a separate data set.

Assay in data set [3]: not given
This is another data set of the same source.

Regarding `*C=Cc1cc(OC)c(*)cc1OCC(CC)CCCC` (repeat unit), the glass transition temperature was 66.00 °C.

Regarding `*C=Cc1cc(OC)c(*)cc1OCCC(C)CCCC(C)C` (repeat unit), the glass transition temperature turned out to be 50.00 °C.

Compound `*c1ccc2c(c1)C(CCCCCCCC)(CCCCCCCC)c1cc(-c3ccc(-c4ccc(-c5ccc(*)s5)c5cc(-c6ccccc6)c(-c6ccccc6)nc45)s3)ccc1-2` (repeat unit) registered a glass transition temperature of 142.00 °C.

As for `*c1ccc2c3ccc(-c4sc(-c5ccc(-c6cc(CCCCCC)c(*)s6)c6nsnc56)cc4CCCCCC)cc3n(C(CCCCCCCC)CCCCCCCC)c2c1` (repeat unit), the glass transition temperature turned out to be 74.00 °C.

In turn, `*c1ccc(-c2ccc(OCCCC)c(-c3cc(*)ccc3OCCCC)c2)cc1` (repeat unit) showed a glass transition temperature of 164.00 °C.

The compound `*c1ccc(-c2ccc(OCCCCCCCCCC)c(-c3cc(*)ccc3OCCCCCCCCCC)c2)cc1` (repeat unit) registered a glass transition temperature of 58.00 °C.

With `*Oc1ccc(C(c2ccc(Oc3ccc4c(c3)C(=O)N(c3ccc(Cc5ccc(N6C(=O)c7ccc(*)cc7C6=O)cc5)cc3)C4=O)cc2)(C(F)(F)F)C(F)(F)F)cc1` (repeat unit), the glass transition temperature in data set [1] is 227.00 ± 4.2 °C.

Turning to `*CC(N1C(=O)c2ccccc2C1=O)n1c(=O)c2cc3c(=O)n(*)c(=O)c3cc2c1=O` (repeat unit), in data set [1], the glass transition temperature stood at 190.00 °C.

Compound `*c1cccc(Oc2ccc(P(=O)(c3ccccc3)c3ccc(Oc4ccc(-n5c(=O)c6cc7c(=O)n(*)c(=O)c7cc6c5=O)cc4)cc3)cc2)c1` (repeat unit) had a glass transition temperature in data set [1] of 254.00 °C.

`*c1ccc2c(c1)C(=O)N(c1c(F)c(F)c(-c3c(F)c(F)c(N4C(=O)c5ccc(C(*)(C(F)(F)F)C(F)(F)F)cc5C4=O)c(F)c3F)c(F)c1F)C2=O` (repeat unit): the glass transition temperature in data set [1] came out at 374.50 ± 15 °C.

Turning to `*c1ccc2c(c1)C(=O)N(c1c(F)c(F)c(N3C(=O)c4ccc(C(*)(C(F)(F)F)C(F)(F)F)cc4C3=O)c(F)c1F)C2=O` (repeat unit), the glass transition temperature in data set [1] was 375.50 ± 6.4 °C.

For the compound `*c1ccc2c(c1)C(=O)N(c1cc(C(F)(F)F)c(N3C(=O)c4ccc(C(*)(C(F)(F)F)C(F)(F)F)cc4C3=O)cc1C(F)(F)F)C2=O` (repeat unit), in data set [1], the glass transition temperature worked out at 365.00 °C.

In the case of `*c1ccc2c(c1)C(=O)N(c1cc(N3C(=O)c4ccc([Si](*)(C)C)cc4C3=O)cc(C(F)(F)F)c1)C2=O` (repeat unit), in data set [1], the glass transition temperature was 263.00 °C.

`*c1ccc2c(c1)C(=O)N(c1ccc(-c3ccc(N4C(=O)c5ccc(C(*)(C(F)(F)F)C(F)(F)F)cc5C4=O)cc3Br)c(Br)c1)C2=O` (repeat unit) returned a glass transition temperature in data set [1] of 329.00 °C.

In the case of `*c1ccc2c(c1)C(=O)N(c1ccc(-c3ccc(N4C(=O)c5ccc(C(*)(C(F)(F)F)C(F)(F)F)cc5C4=O)cc3-c3ccc(C(F)(F)F)cc3)c(-c3ccc(C(F)(F)F)cc3)c1)C2=O` (repeat unit), the glass transition temperature in data set [1] turned out to be 283.00 °C.

Consider `*c1ccc2c(c1)C(=O)N(c1ccc(-c3ccc(N4C(=O)c5ccc(C(*)(C(F)(F)F)C(F)(F)F)cc5C4=O)cc3-c3ccc(-c4ccccc4)cc3)c(-c3ccc(-c4ccccc4)cc3)c1)C2=O` (repeat unit), for which, in data set [1], the glass transition temperature stood at 285.00 °C.

`*c1ccc2c(c1)C(=O)N(c1ccc(-c3ccc(N4C(=O)c5ccc(C(*)(C(F)(F)F)C(F)(F)F)cc5C4=O)cc3I)c(I)c1)C2=O` (repeat unit): in data set [1], the glass transition temperature was found to be 319.00 °C.

`*c1ccc2c(c1)C(=O)N(c1ccc(Oc3c(F)c(F)c(Oc4ccc(N5C(=O)c6ccc(C(*)(C(F)(F)F)C(F)(F)F)cc6C5=O)cc4)c(F)c3F)cc1)C2=O` (repeat unit) yielded a glass transition temperature in data set [1] of 243.80 °C.

For `*c1ccc2c(c1)C(=O)N(c1ccc(OCC(F)(F)C(F)(F)C(F)(F)C(F)(F)C(F)(F)C(F)(F)F)c(N3C(=O)c4ccc(C(*)(C(F)(F)F)C(F)(F)F)cc4C3=O)c1)C2=O` (repeat unit), the glass transition temperature in data set [1] stood at 228.00 °C.

`*c1ccc2c(c1)C(=O)N(c1ccc(P(=O)(c3ccccc3)c3ccc(N4C(=O)c5ccc(C(*)(C(F)(F)F)C(F)(F)F)cc5C4=O)cc3)cc1)C2=O` (repeat unit): in data set [1], the glass transition temperature was determined as 345.00 °C.

In data set [1], `*c1cccc2c1C(=O)N(c1ccc(C3(c4ccc(N5C(=O)c6cccc(*)c6C5=O)c(C)c4)CCCCC3)cc1C)C2=O` (repeat unit) gave a glass transition temperature of 302.50 ± 3.5 °C.

For `*Sc1ccc2c(c1)C(=O)N(c1cc(Cc3ccc(N4C(=O)c5cccc(*)c5C4=O)c(C)c3)ccc1C)C2=O` (repeat unit), in data set [1], the glass transition temperature is 257.50 ± 11 °C.

In the case of `*Sc1ccc2c(c1)C(=O)N(c1ccc(N3C(=O)c4cccc(*)c4C3=O)cc1)C2=O` (repeat unit), in data set [1], the glass transition temperature amounted to 319.50 ± 0.7 °C.

In data set [1], `*Sc1cccc2c1C(=O)N(c1ccc(Oc3ccc(N4C(=O)c5cccc(*)c5C4=O)cc3)cc1)C2=O` (repeat unit) yielded a glass transition temperature of 287.00 ± 8.5 °C.

In turn, `*Oc1cccc(C(=O)c2ccc(Oc3ccc4c(c3)C(=O)N(c3cccc(N5C(=O)c6ccc(*)cc6C5=O)c3)C4=O)cc2)c1` (repeat unit) registered a glass transition temperature in data set [1] of 239.00 °C.

For `*c1ccc2c(c1)C(=O)N(c1cccc(Oc3cccc(N4C(=O)c5cccc(*)c5C4=O)c3)c1)C2=O` (repeat unit), in data set [1], the glass transition temperature amounted to 245.00 ± 1.5 °C.

As to `*Oc1ccc2c(c1)C(=O)N(c1ccc(Oc3ccc(Oc4cccc(N5C(=O)c6cccc(*)c6C5=O)c4)cc3)cc1)C2=O` (repeat unit), the glass transition temperature in data set [1] was 249.00 ± 5.7 °C.

In turn, `*C(=O)c1ccc2c(c1)C(=O)N(c1ccccc1Oc1ccccc1N1C(=O)c3ccc(*)cc3C1=O)C2=O` (repeat unit) showed a glass transition temperature in data set [1] of 289.00 °C.

`*c1cccc(C(c2cccc(-n3c(=O)c4cc5c(=O)n(*)c(=O)c5cc4c3=O)c2)(C(F)(F)F)C(F)(F)F)c1` (repeat unit) registered a glass transition temperature in data set [1] of 296.00 °C.

Compound `*c1nc(C(F)(F)C(F)(F)OC(F)(F)F)nc(C(F)(F)C(F)(F)C(F)(F)C(*)(F)F)n1` (repeat unit) [Perfluoropolymer 2 ] returned a glass transition temperature in data set [2] of -18.6 ± 0.7 °C.

Compound `*CC=C(C*)CCC` (repeat unit) [Poly(2-n-propyl-1 ,4-butadiene) ] came in with a glass transition temperature in data set [2] of -77.6 ± 0.7 °C.

`*CC(*)C(=O)NCCCCCCCC` (repeat unit) [Poly(N-octyl acrylamide)]: the glass transition temperature in data set [3] is -53 °C.

In the case of `*CC(*)C(=O)OCC#N` (repeat unit) [Poly(cyanomethyl acrylate)], the glass transition temperature in data set [3] amounted to 23 °C.

In data set [3], `*CC(*)Br` (repeat unit) [Poly(vinyl bromide)] registered a glass transition temperature of 100 °C.

`*CC(*)C(=O)CC` (repeat unit) [Poly(vinyl ethyl ketone)] returned a glass transition temperature in data set [3] of -60 °C.
